Experimental data reported in patent EP0640594A1, “Hydantoin derivative as metalloprotease inhibitor” (FUJIREBIO INC., priority 1993, dated 1995).

What follows are compounds tested against T1, NEP (Rattus norvegicus, UniProt P07861) (assay: in vitro inhibitory activity on NEP). Conditions: NEP from kidneys of male SD rats; 0.4 mM glutaryl-Ala-Ala-Phe-4-methoxy-β-naphthylamide, pH 7.4, 37°C, 1 hour.
T1 construct: The fractions with the NEP activity were collected, and was used as the enzyme source for the test; from tissue; host or cells: kidneys of male SD rats
T1 sequence (P07861 1-750): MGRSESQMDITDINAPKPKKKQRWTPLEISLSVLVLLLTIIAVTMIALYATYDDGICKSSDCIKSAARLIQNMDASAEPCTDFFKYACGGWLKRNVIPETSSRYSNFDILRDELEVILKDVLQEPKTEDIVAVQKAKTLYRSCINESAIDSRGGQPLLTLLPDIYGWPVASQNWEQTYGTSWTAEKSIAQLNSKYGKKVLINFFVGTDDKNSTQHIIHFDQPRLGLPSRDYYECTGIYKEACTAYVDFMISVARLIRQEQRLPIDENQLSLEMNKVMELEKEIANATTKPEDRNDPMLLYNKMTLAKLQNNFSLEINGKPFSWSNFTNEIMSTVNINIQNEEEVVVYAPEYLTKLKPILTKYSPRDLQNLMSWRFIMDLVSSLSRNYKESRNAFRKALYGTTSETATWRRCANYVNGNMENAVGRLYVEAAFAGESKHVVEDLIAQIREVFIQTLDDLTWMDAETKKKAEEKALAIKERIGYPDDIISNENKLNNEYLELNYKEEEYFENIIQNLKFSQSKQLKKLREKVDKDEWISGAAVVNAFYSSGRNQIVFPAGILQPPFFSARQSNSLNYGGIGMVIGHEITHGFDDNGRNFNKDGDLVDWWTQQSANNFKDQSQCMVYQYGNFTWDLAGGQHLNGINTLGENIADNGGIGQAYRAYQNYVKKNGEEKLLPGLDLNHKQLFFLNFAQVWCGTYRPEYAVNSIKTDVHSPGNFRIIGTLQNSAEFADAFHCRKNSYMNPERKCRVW
Format: biochemical
Protocol: NEP was prepared as follows in accordance with the process as described in Peptide, 9, 173 (1988). Kidneys of male SD rats were homogenized with 10 times by volume of a tris/HCl buffer solution (pH 7.0) containing mannitol and magnesium chloride. The homogenate was centrifuged (700 × g) to give a supernatant liquid. To the supernatant liquid was added n-octyl-β-D-glucoside in an amount to give a final concentration of 1 %, followed by stirring at 4°C for 1 hour, thereby solubilizing the enzyme. The solution was dialyzed against 5 mM HEPES/0.1% Triton (pH 7.4). The inner liquid was applied to a DE-52 column (2.5 cm i.d. × 15 cm) equilibrated with 5 mM HEPES/0.1% Triton (pH 7.4). The column was eluted with 500 ml of a NaCl solution having a linear concentration gradient of 0-300 mM. The fractions with the NEP activity were collected, and was used as the enzyme source for the test.
The inhibitory activity on NEP was measured according to the method described in Biochemistry, 20, 4942 (1981). That is, 250 µl of a 50 mM tris/HCl buffer solution (pH 7.4) containing 0.4 mM of glutaryl-Ala-Ala-Phe-4-methoxy-β-naphthylamide, 0.25 unit/ml of leucine aminopeptidase, a predetermined amount of the sample compound and NEP was prepared and the reaction was carried out at 37°C for 1 hour. The amount of 4-methoxy-β-naphthylamide produced by the NEP activity was measured to determine the inhibitory activity.

Structure (SMILES) | IC50 [nM]
O=C(O)CC1C(=O)N(C(CS)Cc2ccccc2)C(=O)N1C1CCCC1 (stereo not drawn) [Example 18, 5-(carboxymethyl)-1-cyclopentyl-3-(1-mercapto-3-phenyl-2-propyl)hydantoin] | 250
O=C(O)CN1C(=O)N(C(CS)Cc2ccccc2)C(=O)C1C1c2ccccc2-c2ccccc21 (stereo not drawn) [Example 60, 1-(carboxymethyl)-5-(9-fluorenyl)-3-(1-mercapto-3-phenyl-2-propyl)hydantoin] | 180
O=C1CN(N2CCOCC2)C(=O)N1C(CS)Cc1ccccc1 (stereo not drawn) [Example 46, 3-(1-mercapto-3-phenyl-2-propyl)-1-(4-morpholinyl)hydantoin] | 110
O=C(O)CN1C(=O)N(C(CS)Cc2ccccc2)C(=O)C1C1CCCC1 (stereo not drawn) [Example 51, 1-(carboxymethyl)-5-cyclopentyl-3-(1-mercapto-3-phenyl-2-propyl)hydantoin] | 560
O=C1CN(C2CCCC2)C(=O)N1C(CS)Cc1ccccc1 (stereo not drawn) [Example 1, 1-cyclopentyl-3-(1-mercapto-3-phenyl-2-propyl)hydantoin] | 450
O=C1CN(N2CCCCC2)C(=O)N1C(CS)Cc1ccccc1 (stereo not drawn) [Example 45, 3-(1-mercapto-3-phenyl-2-propyl)-1-piperidinylhydantoin] | 59
O=C(O)CCC1C(=O)N(C(CS)Cc2ccccc2)C(=O)N1C1CCCC1 (stereo not drawn) [Example 19, 5-(2-carboxyethyl)-1-cyclopentyl-3-(1-mercapto-3-phenyl-2-propyl)hydantoin] | 160
O=C(O)Cn1c(=O)n(C(CS)Cc2ccccc2)c(=O)n1C1CCCC1 (stereo not drawn) [Example 72, 1-(carboxymethyl)-2-cyclopentyl-4-(1-mercapto-3-phenyl-2-propyl)urazole] | 400
COc1ccc(C2C(=O)N(C(CS)Cc3ccccc3)C(=O)N2CC(=O)O)cc1 (stereo not drawn) [Example 56, 1-(carboxymethyl)-3-(1-mercapto-3-phenyl-2-propyl)-5-(4-methoxyphenyl)hydantoin] | 6.5
CCC(C)[C@@H](C(=O)O)N1CC(=O)N(C(CS)Cc2ccccc2)C1=O (stereo partly drawn) [Example 29, 1-[(1S)-1-carboxy-2-methylbutyl]-3-(1-mercapto-3-phenyl-2-propyl)hydantoin] | 56
O=C(O)CN1C(=O)N(C(CS)Cc2ccccc2)C(=O)C1c1ccc(O)cc1 (stereo not drawn) [Example 55, 1-(carboxymethyl)-5-(4-hydroxyphenyl)-3-(1-mercapto-3-phenyl-2-propyl)hydantoin] | 90
O=C(O)CN1C(=O)N(C(CS)Cc2ccccc2)C(=O)C12Cc1ccccc1C2 (stereo not drawn) [Example 44, 1-(carboxymethyl)-3-(1-mercapto-3-phenyl-2-propyl)hydantoin-5-spiro-2'-indane] | 99
O=C(O)[C@H](Cc1ccccc1)N1CC(=O)N(C(CS)Cc2ccccc2)C1=O (stereo partly drawn) [Example 27, 1-[(1S)-1-carboxy-2-phenylethyl]-3-(1-mercapto-3-phenyl-2-propyl)hydantoin] | 260
O=C(O)CN1C(=O)N(C(CS)Cc2ccccc2)C(=O)C1c1ccccc1 (stereo not drawn) [Example 52, 1-(carboxymethyl)-5-phenyl-3-(1-mercapto-3-phenyl-2-propyl)hydantoin] | 61
CC(C)[C@@H](C(=O)O)N1CC(=O)N(C(CS)Cc2ccccc2)C1=O (stereo partly drawn) [Example 21, 1-[(1S)-1-carboxy-2-methylpropyl)-3-(1-mercapto-3-phenyl-2-propyl)hydantoin] | 52
CC(C)CC(CS)N1C(=O)N(CC(=O)O)C2(CCCC2)C1=O (stereo not drawn) [Example 67, 1-(carboxymethyl)-3-(1-mercapto-4-methyl-2-pentyl)hydantoin-5-spirocyclopentane] | 160
CC(C)CC(CS)N1C(=O)CN(CC(=O)O)C1=O (stereo not drawn) [Example 66, 1-(carboxymethyl)-3-(1-mercapto-4-methyl-2-pentyl)-hydantoin] | 700
CC(C)C[C@@H](C(=O)O)N1CC(=O)N(C(CS)Cc2ccccc2)C1=O (stereo partly drawn) [Example 28, 1-[(1S)-1-carboxy-3-methylbutyl]-3-(1-mercapto-3-phenyl-2-propyl)hydantoin] | 220
CC(C)Oc1ccc(C2C(=O)N(C(CS)Cc3ccccc3)C(=O)N2CC(=O)O)cc1 (stereo not drawn) [Example 58, 1-(carboxymethyl)-3-(1-mercapto-3-phenyl-2-propyl)-5-[4-(2-propyloxy)phenyl]hydantoin] | 28
O=C(O)CN1C(=O)N(C(CS)Cc2ccccc2)C(=O)C1C(c1ccccc1)c1ccccc1 (stereo not drawn) [Example 53, 1-(carboxymethyl)-5-(diphenylmethyl)-3-(1-mercapto-3-phenyl-2-propyl)hydantoin] | 230
O=C1CN(C2CCCCC2)C(=O)N1C(CS)Cc1ccccc1 (stereo not drawn) [Example 3, 1-cyclohexyl-3-(1-mercapto-3-phenyl-2-propyl)hydantoin] | 250
O=C(O)CN1C(=O)N(C(CS)Cc2ccccc2)C(=O)C12CCCC2 (stereo not drawn) [Example 41, 1-(carboxymethyl)-3-(1-mercapto-3-phenyl-2-propyl)hydantoin-5-spirocyclopentane] | 460
O=C(O)CN1CC(=O)N(C(CS)Cc2ccccc2)C1=O (stereo not drawn) [Example 20, 1-(carboxymethyl)-3-(1-mercapto-3-phenyl-2-propyl)hydantoin] | 230
C[C@@H](C(=O)O)N1CC(=O)N(C(CS)Cc2ccccc2)C1=O (stereo partly drawn) [Example 26, 1-[(1S)-1-carboxyethyl]-3-(1-mercapto-3-phenyl-2-propyl)hydantoin] | 170

The compounds below were run against ACE (Homo sapiens, UniProt P12821) (assay: in vitro inhibitory activity on ACE). Conditions: 0.016 unit/ml ACE; 2.0 mM hippuryl-L-histidyl-L-leucine, pH 8.4, 37°C, 30 minutes.
Format: biochemical
Protocol: The inhibitory activity on ACE was measured according to the method described in Biochem. Pharmacolo., 20, 1637 (1971). That is, a 100 mM boric acid/sodium carbonate buffer solution (pH 8.4) containing 2.0 mM of hippuryl-L-histidyl-L-leucine, 0.016 unit/ml of ACE, 0.8 M of NaCl, and a predetermined amount of the sample compound was prepared and the reaction was carried out at 37°C for 30 minutes. The amount of hippuric acid produced by the ACE activity was measured to determine the inhibitory activity.

Sequence of ACE (P12821 30-1306, species assumed): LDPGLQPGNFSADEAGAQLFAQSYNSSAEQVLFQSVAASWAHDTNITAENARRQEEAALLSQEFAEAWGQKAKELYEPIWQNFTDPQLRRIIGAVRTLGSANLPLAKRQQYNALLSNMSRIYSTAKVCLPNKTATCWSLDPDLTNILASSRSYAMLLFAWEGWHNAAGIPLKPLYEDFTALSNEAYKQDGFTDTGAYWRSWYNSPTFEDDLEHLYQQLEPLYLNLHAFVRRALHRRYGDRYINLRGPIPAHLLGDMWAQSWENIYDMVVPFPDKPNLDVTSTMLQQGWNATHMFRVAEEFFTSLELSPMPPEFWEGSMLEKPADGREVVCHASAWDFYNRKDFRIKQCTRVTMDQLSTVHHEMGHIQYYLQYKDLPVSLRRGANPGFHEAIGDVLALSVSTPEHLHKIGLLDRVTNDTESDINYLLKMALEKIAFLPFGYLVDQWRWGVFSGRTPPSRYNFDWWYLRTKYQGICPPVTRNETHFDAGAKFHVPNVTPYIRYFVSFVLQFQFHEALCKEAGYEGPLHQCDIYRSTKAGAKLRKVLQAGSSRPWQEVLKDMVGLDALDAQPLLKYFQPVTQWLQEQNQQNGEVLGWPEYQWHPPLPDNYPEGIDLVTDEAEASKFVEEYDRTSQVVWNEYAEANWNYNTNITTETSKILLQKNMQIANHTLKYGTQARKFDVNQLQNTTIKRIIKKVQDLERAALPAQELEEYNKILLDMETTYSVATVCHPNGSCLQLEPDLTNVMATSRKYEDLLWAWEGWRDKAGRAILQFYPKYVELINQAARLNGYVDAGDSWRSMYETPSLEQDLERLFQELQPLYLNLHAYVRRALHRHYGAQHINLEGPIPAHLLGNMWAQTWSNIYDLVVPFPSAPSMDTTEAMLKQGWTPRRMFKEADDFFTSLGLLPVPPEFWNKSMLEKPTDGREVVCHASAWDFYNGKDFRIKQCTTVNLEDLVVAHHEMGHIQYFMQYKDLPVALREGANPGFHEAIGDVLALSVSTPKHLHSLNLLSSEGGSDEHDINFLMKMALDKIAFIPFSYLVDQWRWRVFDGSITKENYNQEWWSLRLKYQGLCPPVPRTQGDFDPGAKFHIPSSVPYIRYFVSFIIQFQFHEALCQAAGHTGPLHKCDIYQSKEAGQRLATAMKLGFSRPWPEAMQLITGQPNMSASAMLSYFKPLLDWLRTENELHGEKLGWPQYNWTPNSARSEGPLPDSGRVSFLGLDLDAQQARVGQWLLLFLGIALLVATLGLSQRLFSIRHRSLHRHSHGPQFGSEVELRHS

Structure (SMILES) | IC50 [nM]
CCC(C)C1C(=O)N(C(CS)Cc2ccccc2)C(=O)N1CC(=O)O (stereo not drawn) [Example 42, 5-(2-butyl)-1-(carboxymethyl)-3-(1-mercapto-3-phenyl-2-propyl)hydantoin] | 1600
O=C1CN(C2(C(=O)O)CCCCC2)C(=O)N1C(CS)Cc1ccccc1 (stereo not drawn) [Example 24, 1-(1-carboxycyclohexyl)-3-(1-mercapto-3-phenyl-2-propyl) hydantoin] | 5200
O=C(O)CN1C(=O)N(C(CS)Cc2ccccc2)C(=O)C1C1CCCC1 (stereo not drawn) [Example 51, 1-(carboxymethyl)-5-cyclopentyl-3-(1-mercapto-3-phenyl-2-propyl)hydantoin] | 370
O=C(O)CN1C(=O)N(C(CS)Cc2ccccc2)C(=O)C12CCCCC2 (stereo not drawn) [Example 34] | 200
CC(CS)N1C(=O)N(CC(=O)O)C2(CCCC2)C1=O (stereo not drawn) [Example 63, 1-(carboxymethyl)-3-(1-mercapto-2-propyl)hydantoin-5-spirocyclopentane] | 180
O=C(O)CN1C(=O)N(C(CS)Cc2ccccc2)C(=O)C12Cc1ccccc1C2 (stereo not drawn) [Example 44, 1-(carboxymethyl)-3-(1-mercapto-3-phenyl-2-propyl)hydantoin-5-spiro-2'-indane] | 680
O=C(O)CN1C(=O)N(C(CS)Cc2ccccc2)C(=O)C1c1ccccc1 (stereo not drawn) [Example 52, 1-(carboxymethyl)-5-phenyl-3-(1-mercapto-3-phenyl-2-propyl)hydantoin] | 450
CC(C)C1C(=O)N(C(CS)Cc2ccccc2)C(=O)N1CC(=O)O (stereo not drawn) [Example 36, 1-(carboxymethyl)-5-(1-methylethyl)-3-(1-mercapto-3-phenyl-2-propyl)hydantoin] | 3400
CC(C)CC(CS)N1C(=O)N(CC(=O)O)C2(CCCC2)C1=O (stereo not drawn) [Example 67, 1-(carboxymethyl)-3-(1-mercapto-4-methyl-2-pentyl)hydantoin-5-spirocyclopentane] | 510
CC(C)C(CS)N1C(=O)N(CC(=O)O)C2(CCCC2)C1=O (stereo not drawn) [Example 65, 1-(carboxymethyl)-3-(1-mercapto-3-methyl-2-butyl)hydantoin-5-spirocyclopentane] | 1000
CC(O)C1C(=O)N(C(CS)Cc2ccccc2)C(=O)N1CC(=O)O (stereo not drawn) [Example 43, 1-(carboxymethyl)-5-(1-hydroxyethyl)-3-(1-mercapto-3-phenyl-2-propyl)hydantoin] | 1100
CC1(C)C(=O)N(C(CS)Cc2ccccc2)C(=O)N1CC(=O)O (stereo not drawn) [Example 40, 1-(carboxymethyl)-5,5-dimethyl-3-(1-mercapto-3-phenyl-2-propyl)hydantoin] | 2400
O=C(O)CN1C(=O)N(C(CS)Cc2ccccc2)C(=O)C12CCC2 (stereo not drawn) [Example 50, 1-(carboxymethyl)-3-(1-mercapto-3-phenyl-2-propyl)-hydantoin-5-spirocyclobutane] | 300
O=C(O)CN1C(=O)N(C(CS)Cc2ccccc2)C(=O)C12CCCC2 (stereo not drawn) [Example 41, 1-(carboxymethyl)-3-(1-mercapto-3-phenyl-2-propyl)hydantoin-5-spirocyclopentane] | 460
O=C(O)CN1CC(=O)N(C(CS)Cc2ccccc2)C1=O (stereo not drawn) [Example 20, 1-(carboxymethyl)-3-(1-mercapto-3-phenyl-2-propyl)hydantoin] | 5400
